Reference: patent US5441982A, “Therapeutics for management of cocaine induced toxicity” (priority 1993, dated 1995)
“And” between values parts separate entries of the source, which are not always exact repeats. Equal values may be shown once.

Assays:
[1] = target: NMDA receptor; assay: Competition binding, [^3 H]CGP 39653, mouse cortical membranes; details: for Effect on binding of [^3 H]CGP 39653: 0.01 to 100 uM
Procedure: (§1) Affinity of selected reference drugs for the NMDA receptor
(§2) labeled with [^3 H]CGP 39653 and the PCP receptor
(§3) labeled with [^3 H]MK-801, relatively to the effect of
(§4) NOS inhibitors, in mouse cortical membranes.
(§5) Competition binding assays were carried out using 14 nM [^3 H]CGP 39653 and 2 nM [^3 H]MK-801. L-NAME and NO-Arg at a concentration range of 0.01 to 100 uM, each, had no effect (N.E.) on the binding of the two tritium labeled ligands. Data represents the mean ±S.D. of three experiments.

[2] = tested on: cocaine induced seizures and lethality in Swiss-Webster mice; assay: Effect of repeated cocaine administration on convulsive response and survival of mice pretreated with saline or NOS inhibitor; assay type: in vivo; details: for Protection against development of convulsions / Protection against lethal effects of cocaine: 60 min before cocaine 45 mg/kg/day, 7 days; for Convulsions (number of animals that seized) / Convulsions (percentage) / Survival (number of animals that survived) / Survival (percentage): saline or L-NAME (100 mg/kg) 60 min before cocaine 45 mg/kg i.p. daily
Text: In the search for safer agents that may be useful in treating cocaine induced toxicity, Applicant has discovered that drugs that block the enzyme nitric oxide (NO) synthase completely abolish cocaine induced seizures and lethality in mice (see TABLE 1). NO synthase inhibitors such as N-nitro-L-arginine methyl ester (L-NAME) and N-nitro-L-arginine (NO-Arg) are known drugs used clinically for the treatment of septic shock. […] Thus, it is though that NO, a putative neurotransmitter in the brain, is involved in DA-receptor mediated neurotoxicity. Applicant's recent studies are the first to document that NOS inhibitors have protective effects against cocaine induced toxicity. FIG. 1 and FIG. 2. Briefly, Swiss-Webster mice were pretreated with either saline, L-NAME (100 mg/kg/day) or NO-Arg (25 mg/kg/day) 60 min before the administration of cocaine (45 mg/kg/day) for 7 days. The progressive increase in the adverse and toxic effects of repetitive cocaine was manifested by an increase in the convulsive and lethal responses to cocaine. Following the 7th day of saline/cocaine treatment only 60% of the animals survived, and 100% of the animals seized.
Effect of repeated cocaine administration on convulsive
response and survival of Swiss-Webster mice pretreated with
either saline or L-NAME. Mice received a Single i.p.
injection of cocaine (45 mg/kg) each day 60 min after
pretreatment with either saline or L-NAME (100 mg/kg). Data
is expressed as the total number of animals that seized
and survived following the drugs treatment in three separate
experiments. Numbers in parentheses indicate percentage.

[3] = target: PCP receptor; assay: Competition binding, [^3 H]MK-801, mouse cortical membranes; details: for [^3 H]MK-801 Ki / Ki: 2 nM [^3 H]MK-801, mouse cortical membranes, mean ± S.D. of three experiments, N.E. = no effect at 0.01 to 100 uM; for Effect on binding of [^3 H]MK-801: 0.01 to 100 uM
Procedure: as §1, §2, §3, §4, §5

[4] = 14 nM [^3 H]CGP 39653, mouse cortical membranes, mean ± S.D. of three experiments, N.E. = no effect at 0.01 to 100 uM

SMILES	Convulsions (number of animals that seized) ([2]; day 1)	Convulsions (percentage) ([2]; day 1) [%]	Survival (number of animals that survived) ([2]; day 1)	Survival (percentage) ([2]; day 1) [%]	Convulsions (number of animals that seized) ([2]; day 2)	Convulsions (percentage) ([2]; day 2) [%]	Survival (number of animals that survived) ([2]; day 2)	Survival (percentage) ([2]; day 2) [%]	Convulsions (number of animals that seized) ([2]; day 3)	Convulsions (percentage) ([2]; day 3) [%]	Survival (number of animals that survived) ([2]; day 3)	Survival (percentage) ([2]; day 3) [%]	Convulsions (number of animals that seized) ([2]; day 4)	Convulsions (percentage) ([2]; day 4) [%]	Survival (number of animals that survived) ([2]; day 4)	Survival (percentage) ([2]; day 4) [%]	Convulsions (number of animals that seized) ([2]; day 5)	Convulsions (percentage) ([2]; day 5) [%]	Survival (number of animals that survived) ([2]; day 5)	Survival (percentage) ([2]; day 5) [%]	other results
NC(CCCP(=O)(O)O)C(=O)O (stereo not drawn) [AP-5]	–	–	–	–	–	–	–	–	–	–	–	–	–	–	–	–	–	–	–	–	Ki [1, 4]: 2230 ± 180 nM
COC(=O)[C@@H](N)CCCN=C(N)N[N+](=O)[O-] [L-NAME, N-nitro-L-arginine methyl ester]	0/30	0	30/30	100	1/30	3	30/30	100	2/30	6	30/30	100	0/30	0	30/30	100	1/30	3	30/30	100	Protection against development of convulsions ([2]; L-NAME 100 mg/kg/day): completely protected; Protection against lethal effects of cocaine ([2]; L-NAME 100 mg/kg/day): completely protected; Convulsions (number of animals that seized) ([2]; day 6): 1/30; Convulsions (percentage) ([2]; day 6): 3%; Survival (number of animals that survived) ([2]; day 6): 30/30; Survival (percentage) ([2]; day 6): 100%; Convulsions (number of animals that seized) ([2]; day 7): 0/30; Convulsions (percentage) ([2]; day 7): 0%; Survival (number of animals that survived) ([2]; day 7): 30/30; Survival (percentage) ([2]; day 7): 100%; [^3 H]CGP 39653 Ki [1, 4]: N.E.; Effect on binding of [^3 H]CGP 39653 [1]: no effect; [^3 H]MK-801 Ki [3]: N.E.; Effect on binding of [^3 H]MK-801 [3]: no effect
C[C@]12N[C@H](Cc3ccccc31)c1ccccc12 [MK-801]	–	–	–	–	–	–	–	–	–	–	–	–	–	–	–	–	–	–	–	–	Ki [3]: 3 ± 0.2 nM
NC(=NCCC[C@H](N)C(=O)O)N[N+](=O)[O-] [NO-Arg, N-nitro-L-arginine]	–	–	–	–	–	–	–	–	–	–	–	–	–	–	–	–	–	–	–	–	Protection against development of convulsions ([2]; NO-Arg 25 mg/kg/day): completely protected; Protection against lethal effects of cocaine ([2]; NO-Arg 25 mg/kg/day): completely protected; [^3 H]CGP 39653 Ki [1, 4]: N.E.; Effect on binding of [^3 H]CGP 39653 [1]: no effect; [^3 H]MK-801 Ki [3]: N.E.; Effect on binding of [^3 H]MK-801 [3]: no effect
c1ccc(C2(N3CCCCC3)CCCCC2)cc1 [PCP]	–	–	–	–	–	–	–	–	–	–	–	–	–	–	–	–	–	–	–	–	Ki [3]: 55 ± 4 nM
COC(=O)[C@H]1[C@@H](OC(=O)c2ccccc2)C[C@@H]2CC[C@H]1N2C [cocaine]	4/36	11	36/36	100	14/36	38	36/36	100	20/36	55	36/36	100	22/34	65	34/36	94	24/33	72	33/36	91	Convulsions had occurred (in words) ([2]; by the seventh day, uniform daily doses of cocaine): in all animals; Convulsions (number of animals that seized) ([2]; day 6): 26/27; Convulsions (percentage) ([2]; day 6): 96%; Survival (number of animals that survived) ([2]; day 6): 27/36; Survival (percentage) ([2]; day 6): 75%; Convulsions (number of animals that seized) ([2]; day 7): 22/22; Convulsions (percentage) ([2]; day 7): 100%; Survival (number of animals that survived) ([2]; day 7): 22/36; Survival (percentage) ([2]; day 7): 60% and 61%
